# Measurements from ChEMBL document CHEMBL1201862, “PubChem BioAssay data set” (2004).
# Calls of active or inactive are those of the source.
# Tests used:
# [1] = biological target: T1, Streptokinase A (Streptococcus pyogenes serotype M1, UniProt P10520); experiment: S. pyogenes streptokinase expression inhibitors, potency, dose response, plasminogen activation absorbance, OD405 (AID 1914); format: functional, Streptococcus pyogenes M1 GAS;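 also: secreted streptokinase activity via plasminogen activation per viability signal from cell pellet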
# T1 sequence (P10520 whole entry): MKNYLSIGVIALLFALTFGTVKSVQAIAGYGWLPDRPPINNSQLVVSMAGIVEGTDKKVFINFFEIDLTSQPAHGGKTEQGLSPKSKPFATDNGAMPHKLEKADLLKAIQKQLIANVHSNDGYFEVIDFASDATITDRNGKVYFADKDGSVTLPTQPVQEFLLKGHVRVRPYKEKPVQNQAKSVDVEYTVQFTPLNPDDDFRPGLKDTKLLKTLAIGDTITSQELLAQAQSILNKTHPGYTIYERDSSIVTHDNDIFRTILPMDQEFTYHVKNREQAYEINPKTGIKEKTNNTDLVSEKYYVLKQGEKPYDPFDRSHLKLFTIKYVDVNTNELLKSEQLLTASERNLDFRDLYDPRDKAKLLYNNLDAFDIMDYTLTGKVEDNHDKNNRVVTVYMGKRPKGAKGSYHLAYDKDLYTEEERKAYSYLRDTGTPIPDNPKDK
# [2] = system: Streptococcus; experiment: Group A Streptococcus viability loss, dose response, counter-screen for streptokinase expression inhibitor project, luminescence, BacTiterGlo (AID 1915); format: functional, organism-based;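 also: potency for reduction of bacterial viability or growth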
# [3] = system: Streptococcus sp. 'group A'; experiment: growth inhibition of control SK(-) GAS strain, dose response, counter-screen for streptokinase expression inhibitor project, luminescence, kanamycin, BacTiterGlo, confirmation (AID 1900); format: functional, organism-based
# [4] = Luminescence Cell-Based Dose Retest to Confirm Inhibitors of Cancer Stem Cells. [Related pubchem assays (depositor defined):AID2717, AID2721]; format: functional; conditions: Homo sapiens
# [5] = biological target: T2, Rac GTPase-activating protein 1 (Homo sapiens, UniProt Q9H0H5); experiment: MgcRacGAP GTPase-activating activity inhibitors, confirmation, biochemical, ADP Hunter fluorescence, primary and confirmatory (AID 624330); format: functional
# T2 sequence (Q9H0H5 whole entry): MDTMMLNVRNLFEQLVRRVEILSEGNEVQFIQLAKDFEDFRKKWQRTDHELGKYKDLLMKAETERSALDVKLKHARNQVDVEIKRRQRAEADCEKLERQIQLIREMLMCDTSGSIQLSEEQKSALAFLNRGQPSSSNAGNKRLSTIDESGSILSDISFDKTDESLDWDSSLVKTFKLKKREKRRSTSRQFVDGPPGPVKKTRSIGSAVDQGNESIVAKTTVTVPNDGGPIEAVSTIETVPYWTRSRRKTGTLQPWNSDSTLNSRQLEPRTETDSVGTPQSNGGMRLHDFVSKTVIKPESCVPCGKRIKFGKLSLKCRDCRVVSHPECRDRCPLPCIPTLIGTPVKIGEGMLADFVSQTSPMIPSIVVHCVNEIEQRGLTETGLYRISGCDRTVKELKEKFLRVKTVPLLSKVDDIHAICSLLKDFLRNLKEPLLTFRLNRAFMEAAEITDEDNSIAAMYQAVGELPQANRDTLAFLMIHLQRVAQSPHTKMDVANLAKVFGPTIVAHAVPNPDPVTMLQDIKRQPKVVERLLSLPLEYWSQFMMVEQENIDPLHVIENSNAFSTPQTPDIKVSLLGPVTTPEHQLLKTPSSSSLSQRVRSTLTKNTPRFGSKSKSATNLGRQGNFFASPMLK
# [6] = biological target: Cytochrome P450 3A4 (Homo sapiens, UniProt P08684);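 also: CYP3A4 tested as one member of a cytochrome P450 panel screen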
# [7] = biological target: T3, Cytochrome P450 1A2 (Homo sapiens, UniProt P05177);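 also: PubChem cytochrome P450 panel assay, CYP1A2 panel member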
# T3 sequence (P05177 whole entry): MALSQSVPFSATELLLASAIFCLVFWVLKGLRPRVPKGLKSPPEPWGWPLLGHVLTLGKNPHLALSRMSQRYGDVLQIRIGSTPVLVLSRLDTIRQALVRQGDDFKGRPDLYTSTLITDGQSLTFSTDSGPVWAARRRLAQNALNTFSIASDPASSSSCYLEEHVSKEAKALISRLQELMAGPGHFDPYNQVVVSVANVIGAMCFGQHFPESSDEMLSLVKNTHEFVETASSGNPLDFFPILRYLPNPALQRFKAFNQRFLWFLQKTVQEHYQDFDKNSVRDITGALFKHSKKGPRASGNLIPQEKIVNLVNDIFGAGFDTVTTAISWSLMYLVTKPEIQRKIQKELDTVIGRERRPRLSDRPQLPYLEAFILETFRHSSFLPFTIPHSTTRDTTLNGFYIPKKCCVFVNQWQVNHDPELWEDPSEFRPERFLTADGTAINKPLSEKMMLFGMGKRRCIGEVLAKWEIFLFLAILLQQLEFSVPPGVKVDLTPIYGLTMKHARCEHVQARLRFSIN
# [8] = biological target: Cytochrome P450 2C9 (Homo sapiens, UniProt P11712)
# [9] = biological target: T4, Replicative DNA helicase DnaB (Mycobacterium tuberculosis, UniProt P9WMR3); experiment: DnaB intein splicing inhibitors, dose response, biochemical, cell-free fluorescence (AID 449749); format: functional
# T4 sequence (P9WMR3 whole entry): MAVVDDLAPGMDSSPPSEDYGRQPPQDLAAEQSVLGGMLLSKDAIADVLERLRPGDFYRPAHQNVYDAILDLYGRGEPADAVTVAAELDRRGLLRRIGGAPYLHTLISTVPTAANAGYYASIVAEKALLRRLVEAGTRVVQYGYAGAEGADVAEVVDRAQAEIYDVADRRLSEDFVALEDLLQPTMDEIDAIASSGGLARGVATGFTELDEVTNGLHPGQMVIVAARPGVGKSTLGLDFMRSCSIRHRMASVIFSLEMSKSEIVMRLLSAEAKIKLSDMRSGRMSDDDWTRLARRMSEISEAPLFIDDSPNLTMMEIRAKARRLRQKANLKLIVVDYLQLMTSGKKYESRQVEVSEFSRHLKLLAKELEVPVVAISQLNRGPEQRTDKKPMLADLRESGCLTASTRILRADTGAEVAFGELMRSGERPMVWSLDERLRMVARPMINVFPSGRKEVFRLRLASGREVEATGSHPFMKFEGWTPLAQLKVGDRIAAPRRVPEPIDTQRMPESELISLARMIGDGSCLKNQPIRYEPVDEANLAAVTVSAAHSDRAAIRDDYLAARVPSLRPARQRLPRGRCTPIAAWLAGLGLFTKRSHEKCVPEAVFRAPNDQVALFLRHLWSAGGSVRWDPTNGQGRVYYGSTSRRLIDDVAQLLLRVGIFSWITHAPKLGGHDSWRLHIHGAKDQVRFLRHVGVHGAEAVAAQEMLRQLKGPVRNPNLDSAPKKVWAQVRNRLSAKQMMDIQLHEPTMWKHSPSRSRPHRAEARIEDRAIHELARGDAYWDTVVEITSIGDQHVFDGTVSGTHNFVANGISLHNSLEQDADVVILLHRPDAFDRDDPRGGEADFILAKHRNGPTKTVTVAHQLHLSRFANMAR
# [10] = biological target: T5, Protein RecA (Mycobacterium tuberculosis, UniProt P9WHJ3); experiment: Fluorescence Cell-Free Homogeneous Dose Retest to Identify Inhibitors of RecA-Intein Splicing Activity. [Related pubchem assays (depositor defined):AID2097, AID2223, AID489010, AID492950]; format: functional
# T5 sequence (P9WHJ3 whole entry): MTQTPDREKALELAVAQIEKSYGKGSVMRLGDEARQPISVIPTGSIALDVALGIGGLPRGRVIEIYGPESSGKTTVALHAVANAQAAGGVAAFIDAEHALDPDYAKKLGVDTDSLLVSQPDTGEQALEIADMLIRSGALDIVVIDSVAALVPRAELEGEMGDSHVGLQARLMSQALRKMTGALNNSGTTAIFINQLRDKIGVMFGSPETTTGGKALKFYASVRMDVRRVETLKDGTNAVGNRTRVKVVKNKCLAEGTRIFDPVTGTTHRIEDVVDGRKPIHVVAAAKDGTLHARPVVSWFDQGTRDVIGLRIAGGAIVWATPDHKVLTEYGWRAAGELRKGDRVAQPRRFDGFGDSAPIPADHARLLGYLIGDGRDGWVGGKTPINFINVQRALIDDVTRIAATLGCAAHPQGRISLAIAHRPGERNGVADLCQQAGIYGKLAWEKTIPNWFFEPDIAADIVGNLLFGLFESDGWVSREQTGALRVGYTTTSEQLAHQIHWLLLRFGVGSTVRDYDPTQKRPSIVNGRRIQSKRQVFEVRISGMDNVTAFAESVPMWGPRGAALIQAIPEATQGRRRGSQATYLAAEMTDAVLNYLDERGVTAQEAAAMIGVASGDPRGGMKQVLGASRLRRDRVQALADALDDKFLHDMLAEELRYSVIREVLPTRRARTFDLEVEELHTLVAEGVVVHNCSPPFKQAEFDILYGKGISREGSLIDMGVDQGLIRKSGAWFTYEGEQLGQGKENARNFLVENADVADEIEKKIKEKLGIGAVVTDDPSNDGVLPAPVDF
# [11] = biological target: Cytochrome P450 2C19 (Homo sapiens, UniProt P33261); experiment: Cytochrome panel assay with activity outcomes. Panel member name: p450-cyp2c19 Compounds with AC50 equal or less than 10 uM are considered active; format: functional
# [12] = biological target: Paired box protein Pax-8 (Homo sapiens, UniProt Q06710); experiment: inhibitors of PAX8-driven TPO luciferase reporter, dose response, RMG-I cells, cherry-pick (AID 687027); format: functional, cell-based;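 also: luciferase reporter driven by Pax8 target thyroperoxidase promoter measured by SteadyGlo luminescence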
# Sequence of Paired box protein Pax-8 (Q06710 whole entry): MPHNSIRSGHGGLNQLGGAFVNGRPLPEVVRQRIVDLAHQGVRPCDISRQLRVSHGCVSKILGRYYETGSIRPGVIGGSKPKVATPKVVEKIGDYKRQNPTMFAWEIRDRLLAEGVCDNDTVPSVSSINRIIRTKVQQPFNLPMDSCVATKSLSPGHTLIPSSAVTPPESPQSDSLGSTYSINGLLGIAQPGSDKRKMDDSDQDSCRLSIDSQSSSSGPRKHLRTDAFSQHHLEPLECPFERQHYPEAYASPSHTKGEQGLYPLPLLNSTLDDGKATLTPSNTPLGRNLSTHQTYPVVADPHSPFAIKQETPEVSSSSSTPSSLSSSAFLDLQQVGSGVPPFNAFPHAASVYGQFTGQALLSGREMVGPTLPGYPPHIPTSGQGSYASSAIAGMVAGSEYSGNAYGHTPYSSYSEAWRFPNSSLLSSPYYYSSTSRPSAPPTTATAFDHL
# Sequence of Cytochrome P450 3A4 (P08684 whole entry): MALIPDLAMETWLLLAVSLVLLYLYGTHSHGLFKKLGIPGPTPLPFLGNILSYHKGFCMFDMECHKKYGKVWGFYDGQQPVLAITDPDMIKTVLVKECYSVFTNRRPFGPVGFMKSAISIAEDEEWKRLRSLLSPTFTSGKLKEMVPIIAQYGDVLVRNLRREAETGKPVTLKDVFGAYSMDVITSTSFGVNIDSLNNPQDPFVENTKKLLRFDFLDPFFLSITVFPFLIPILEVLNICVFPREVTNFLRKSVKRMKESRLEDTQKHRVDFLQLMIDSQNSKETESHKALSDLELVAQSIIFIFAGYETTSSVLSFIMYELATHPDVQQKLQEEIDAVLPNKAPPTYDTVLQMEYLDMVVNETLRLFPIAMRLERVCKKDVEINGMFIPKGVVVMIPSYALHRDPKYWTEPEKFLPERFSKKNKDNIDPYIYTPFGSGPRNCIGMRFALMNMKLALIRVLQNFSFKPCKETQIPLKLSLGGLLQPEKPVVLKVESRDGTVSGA
# Sequence of Cytochrome P450 2C9 (P11712 whole entry): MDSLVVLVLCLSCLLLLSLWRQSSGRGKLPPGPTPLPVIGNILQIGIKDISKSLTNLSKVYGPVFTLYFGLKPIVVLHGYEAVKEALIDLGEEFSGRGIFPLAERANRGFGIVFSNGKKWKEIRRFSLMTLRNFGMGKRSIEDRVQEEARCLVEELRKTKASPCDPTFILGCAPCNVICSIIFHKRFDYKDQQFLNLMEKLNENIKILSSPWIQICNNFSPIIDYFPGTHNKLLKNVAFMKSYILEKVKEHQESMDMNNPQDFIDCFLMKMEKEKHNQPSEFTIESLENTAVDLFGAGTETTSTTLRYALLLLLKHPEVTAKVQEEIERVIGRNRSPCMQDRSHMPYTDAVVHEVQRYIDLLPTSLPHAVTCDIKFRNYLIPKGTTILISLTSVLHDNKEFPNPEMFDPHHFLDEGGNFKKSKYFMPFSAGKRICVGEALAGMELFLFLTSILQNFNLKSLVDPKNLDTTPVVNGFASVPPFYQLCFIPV
# Sequence of Cytochrome P450 2C19 (P33261 whole entry): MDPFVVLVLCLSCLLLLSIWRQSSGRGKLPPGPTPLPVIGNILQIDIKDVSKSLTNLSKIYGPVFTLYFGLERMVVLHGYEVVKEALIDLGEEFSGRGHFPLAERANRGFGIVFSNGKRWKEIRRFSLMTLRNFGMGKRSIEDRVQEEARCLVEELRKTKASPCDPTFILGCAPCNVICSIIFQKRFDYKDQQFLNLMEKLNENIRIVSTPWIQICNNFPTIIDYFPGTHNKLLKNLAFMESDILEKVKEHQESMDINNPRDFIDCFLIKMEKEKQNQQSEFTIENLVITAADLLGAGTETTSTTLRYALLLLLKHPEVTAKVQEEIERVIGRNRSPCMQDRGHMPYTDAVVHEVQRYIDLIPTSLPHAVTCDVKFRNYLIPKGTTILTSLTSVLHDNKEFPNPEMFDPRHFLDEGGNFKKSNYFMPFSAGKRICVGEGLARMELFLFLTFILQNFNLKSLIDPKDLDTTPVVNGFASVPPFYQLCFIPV
smiles,measurement,setting,value
Cc1oc2cc(Br)c(O)c(Br)c2c1-c1ccccc1,EC50,[1],> 150 µM (not active)
same,EC50,[2],8.18 µM (active)
same,EC50,[3],8.24 µM (active)
CC1(C)Cc2ccccc2C(/C=C(\O)c2ccccc2)=N1,AC50,[4],1.97 µM (active)
Cc1c(O)ccc(NC(=O)/C=C/c2ccccc2)c1C,IC50,[5],41.8 µM (active)
Cc1cc(=O)oc2cc(OCC(=O)N3CCN(C(=O)C4COc5ccccc5O4)CC3)ccc12 (stereo unspecified),EC50,[1],> 50 µM (not active)
same,EC50,[2],10.4 µM (active)
same,EC50,[3],2.83 µM (active)
CC1CCC/C(=C\c2ccc(O)cc2)C1=O (stereo unspecified),IC50,[5],26.6 µM (active)
CCOC(=O)c1c(S(=O)(=O)N2CCCCCC2)c(C)n(C)c1C,EC50,[1],> 150 µM (not active)
same,EC50,[2],> 150 µM (not active)
same,EC50,[3],> 150 µM (not active)
CCC(=O)OCc1c(C(F)(F)F)nn(C)c1Sc1ccc(F)cc1,AC50,[6],25.1 µM (inconclusive)
same,AC50,[7],12.6 µM (inconclusive)
COc1cccc(Nc2ncc3nc(-c4ccccc4)c(=O)n(Cc4cccs4)c3n2)c1,AC50,[7],20 µM (inconclusive)
O=C(O)c1cc2cc(OCc3ccccc3)ccc2[nH]1,AC50,[8],25.1 µM (inconclusive)
same,AC50,[7],6.31 µM (inconclusive)
CCC#CCOCC(=S)Nc1ccccc1,AC50,[7],15.8 µM (inconclusive)
CCN(CC)C[C@@H]1CCCCN1CC(=O)N1c2ccccc2C(=O)Nc2cccnc21,AC50,[7],31.6 µM (inconclusive)
CN1C(=O)COc2c(C(=O)N[C@@H]3CN4CCC3CC4)cc(Cl)cc21,AC50,[7],39.8 µM (inconclusive)
O=C(CNC(=O)c1ccncc1)N/N=C/c1ccc(O)cc1O,IC50,[5],75.5 µM (active)
Cc1ccc(C)c(OCCCCN2CCCCC2)c1,IC50,[5],176 µM (active)
CC(C)(C)c1nnc(N/N=C/c2ccc(O)cc2)n(N)c1=O,IC50,[5],123 µM (active)
COCCN(C(=O)C(C)C)c1nnc(-c2ccc(C(C)(C)C)cc2)s1,AC50,[4],2.42 µM (active)
CCN(C(=O)Cn1c(=O)oc2ccccc21)c1cccc(C(F)(F)F)c1,AC50,[6],7.08 µM (inconclusive)
same,AC50,[7],39.8 µM (inconclusive)
Cc1nc(Nc2ccc(O)cc2)c2c3c(sc2n1)CCCC3,AC50,[9],> 380 µM (inactive)
same,IC50,[5],28.8 µM (active)
same,EC50,[10],125 µM (active)
CC1=CC(C)(C)N(C(=O)CNC2CCCC2)c2cc(C)ccc21,IC50,[5],158 µM (active)
N[C@@H](COP(=O)(O)O)C(=O)O [DEXFOSFOSERINE],AC50,[11],inconclusive
same,AC50,[6],0.794 µM (inconclusive)
same,AC50,[7],25.1 µM (inconclusive)
Cc1ccccc1C(OCC(O)CN1CCN(CCO)CC1)c1ccccc1 (stereo unspecified),IC50,[5],80.2 µM (active)
CCCCn1c(C)cc2cc(O)ccc21,IC50,[5],26.9 µM (active)
COCC(=O)O[C@]1(CCN(C)CCCc2nc3ccccc3[nH]2)CCc2cc(F)ccc2[C@@H]1C(C)C [MIBEFRADIL],AC50,[7],31.6 µM (inconclusive)
Cc1cc(-c2c(C)[nH]n(-c3ccc(Cl)cc3)c2=O)n[nH]1,EC50,[1],> 150 µM (not active)
O=C(CN1CCN(c2ccc(O)cc2)CC1)NCC(=O)Nc1ccc(F)c(F)c1F,IC50,[5],47 µM (active)
CCC(C)(C)n1nnnc1C(c1cc2cc3c(cc2nc1O)OCO3)N1CCCCC1 (stereo unspecified),AC50,[8],0.02 µM (inconclusive)
same,AC50,[7],17.8 µM (inconclusive)
COC(=O)[C@@]12C[C@@H](CC(=O)N3CCN(C(=O)c4ccco4)CC3)C(=O)N(Cc3ccccc3)C1=CCC(C)(C)C2,AC50,[12],1.81 µM (active)
